# Legend:
# [1] = system: IGF-1R, AKT and ERK phosphorylation; test: IGF-1R signaling activation in ES cell lines (WB for P-IGF-1R, P-AKT, P-ERK); type: cell-based; settings: serum starved ES cells
# IGF-1R [2] = test: IGF-1R degradation in MEF cells (β-arrestin knockouts, Δ1245 IGF-1R), WB; type: cell-based, mouse; settings: R− MEF expressing Δ1245 IGF-1R; over 48 h
# Description: (§1) Protein lysates were analyzed by WB for IGF-1R and GAPDH as a loading control. […] Data correspond to the mean±SEM from three independent experiments. (B,D) Cell viability of the CP-treated cells for 48 h, in the absence (SFM) or presence of serum, was evaluated by PrestoBlue reagent. […] Data correspond to the mean±SEM from three independent experiments.
# (§2) Appropriate primary antibody was incubated overnight at 4° C.
# IGF-1R [3] = molecular target: T1, IGF-1R (Mus musculus, UniProt Q60751); test: as above; type: cell-based; settings: 24 h
# T1 construct: MEF cells expressing full length, wild type IGF-1R; endogenous in cells; host or cells: MEF, and MEF knockout for β-arrestin1, β-arrestin2 or both
# Description: as §1, §2
# T1 sequence (Q60751 31-737 limits assumed): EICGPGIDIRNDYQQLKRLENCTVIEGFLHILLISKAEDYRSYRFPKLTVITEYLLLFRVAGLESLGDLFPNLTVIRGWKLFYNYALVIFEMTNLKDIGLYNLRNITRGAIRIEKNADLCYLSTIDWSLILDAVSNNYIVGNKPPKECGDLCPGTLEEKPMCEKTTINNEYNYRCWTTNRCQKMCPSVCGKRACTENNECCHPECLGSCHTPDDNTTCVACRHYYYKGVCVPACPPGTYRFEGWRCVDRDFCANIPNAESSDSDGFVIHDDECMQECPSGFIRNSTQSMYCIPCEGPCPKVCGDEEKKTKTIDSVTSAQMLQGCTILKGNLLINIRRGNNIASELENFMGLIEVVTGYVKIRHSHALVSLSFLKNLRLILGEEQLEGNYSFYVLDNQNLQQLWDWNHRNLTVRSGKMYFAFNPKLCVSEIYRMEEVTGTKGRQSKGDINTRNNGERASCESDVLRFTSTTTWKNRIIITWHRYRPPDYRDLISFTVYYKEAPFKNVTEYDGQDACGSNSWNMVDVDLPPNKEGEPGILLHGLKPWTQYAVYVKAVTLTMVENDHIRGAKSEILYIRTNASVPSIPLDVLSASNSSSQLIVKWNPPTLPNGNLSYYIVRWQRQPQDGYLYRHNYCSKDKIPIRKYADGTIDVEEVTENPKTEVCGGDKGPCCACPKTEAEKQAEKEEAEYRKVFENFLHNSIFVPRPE
# T1 sequence (Q60751 742-1373 limits assumed): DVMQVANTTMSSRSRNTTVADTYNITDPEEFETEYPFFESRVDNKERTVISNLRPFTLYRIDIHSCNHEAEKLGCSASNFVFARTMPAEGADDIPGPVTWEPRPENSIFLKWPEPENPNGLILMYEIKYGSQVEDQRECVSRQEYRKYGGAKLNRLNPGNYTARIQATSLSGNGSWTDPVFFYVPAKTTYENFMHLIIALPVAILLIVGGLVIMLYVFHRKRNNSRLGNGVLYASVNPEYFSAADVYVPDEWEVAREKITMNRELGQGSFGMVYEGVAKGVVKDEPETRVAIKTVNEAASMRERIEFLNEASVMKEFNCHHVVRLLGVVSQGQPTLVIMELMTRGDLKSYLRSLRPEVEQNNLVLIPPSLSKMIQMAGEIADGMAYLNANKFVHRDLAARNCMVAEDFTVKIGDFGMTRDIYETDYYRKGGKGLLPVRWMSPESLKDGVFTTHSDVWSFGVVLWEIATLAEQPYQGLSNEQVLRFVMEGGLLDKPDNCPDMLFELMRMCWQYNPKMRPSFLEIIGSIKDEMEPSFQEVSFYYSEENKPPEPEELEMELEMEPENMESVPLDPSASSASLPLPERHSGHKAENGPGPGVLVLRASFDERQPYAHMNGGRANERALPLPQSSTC
substance,measurement,setting,value
"IGF-1: classical ligand of IGF-1R, used at 50 ng/ml for stimulation",Time to phosphorylation of the IGF-1R activation loop,[1],≤ 2 min
same,Degradation of truncated IGF-1R (Δ1245),IGF-1R [2],resistant
same,IGF-1R degradation,IGF-1R [3]; MEF without β-arr1 (β1KO or β1/2 KO),almost completely abolished
same,IGF-1R degradation,IGF-1R [3]; control MEF and β2KO cells (expressing β-arr1),drastically downregulated the receptor

# From patent US20140335077A1, “Compositions and Methods for the Treatment of Cancer Using IGF-IR Antagonists and MAPK/ERK Inhibitors” (priority 2013, published 2014)
